Reference: patent US9951087B2, “Fused ring analogues of anti-fibrotic agents” (Fibrotech Therapeutics PTY LTD, priority 2009, dated 2018)

Assays:
[1] = test system: rat mesangial cells; assay: Proline incorporation assay: reduction of TGF-beta 1 stimulated proline incorporation; format: cell-based; details: Mesangial cell, 44 h, TGF-beta 1 5 ng/mL, read-out: Percentage Reduction of TGF-Beta 1 Stimulated Proline Incorporation; for inhibition at 10 µM: 10 μM compound; for inhibition at 30 µM: 30 μM compound; for inhibition at 100 µM: 100 μM compound
Description: (§1) A well-characterised cloned rat mesangial cell line (Kakizaki Y, Kraft N, Atkins R C: Differential control of mesangial cell proliferation by interferon-gamma. Clin Exp Immunol 85:157-163, 1991) was cultured in DMEM (5 mM glucose) with 5% FBS, 100U/mL penicillin, and 100 ug/mL streptomycin in humidified 5% CO2 atmosphere at 37 C. Cells were used up to passage 40.
Proline Incorporation Assay
(§2) Cells were plated into 24-well culture dishes in DMEM/5% FBS and allowed to adhere overnight. The subconfluent cells were then starved overnight in DMEM/0.1% FBS and 150 uM L-ascorbic acid, prior to pre-treatment with or without FibroTech compounds for 4 hours at 10, 30 or 100 uM in 0.1% DMSO, final concentration. TGF-beta 1 at 5 ng/mL (Peprotech) and tritiated proline (Perkin-Elmer, (2,3,4,5-^3H)-proline) at 1 uCi/mL were added and the incubation continued for a further 44 hours. Treatments were performed in triplicate.
After the incubation, cells were placed on ice and washed three times with ice cold PBS. They were then incubated on ice with 10% TCA for 30 minutes, followed by a final wash in cold 10% TCA. The cells were solubilized in 0.75 mL of 1M NaOH at 37 C for 45 minutes, or overnight at 4 C. Aliquots of the solubilized cells were neutralized in an equal amount of 1M HCl and counted in scintillant in a beta counter. Aliquots of neutralized solubilized cells were assayed for protein using the BioRad Bradford Protein Assay. Proline incorporation was normalized for protein content (cpm ^3H-proline incorporated per ug protein).
In order to compare the results of experiments performed on different days, the percentage inhibition of proline incorporation was calculated for each treatment by setting the TGF treatment at 0% inhibition and the control (incubation with media alone) at 100% inhibition.
Percentage Reduction of TGF-Beta 1 Stimulated Proline Incorporation: […]

[2] = test system: rat mesangial cells; assay: Toxicity rank and cell condition observed in the proline incorporation assay; format: cell-based; design: key to Tox. Rank (4 = non-toxic): (4 = non-toxic); details: for Cell condition observed (sick, dead): 30 μM; for Cell condition observed (sick, dead, some death, cells elongated): 100 μM
Description: as §1, §2

[3] = Compound precipitation observed during the proline incorporation assay; format: physicochemical; design: key: ppt indicates compound precipitated during assay
Description: as §2

SMILES | inhibition at 10 µM [1] [%] | inhibition at 30 µM [1] [%] | inhibition at 100 µM [1] [%] | Tox. Rank (4 = non-toxic) ([2]; no concentration stated) | melting point [°C] | Compound precipitated during assay ([3]; 100 μM in 0.1% DMSO) | Cell condition observed (sick, dead) [2] | Cell condition observed (sick, dead, some death, cells elongated) [2] | Tox. Rank (4 = non-toxic) ([2]; @30 uM) | Tox. Rank (4 = non-toxic) ([2]; @100 uM) | Compound precipitated during assay ([3]; 30 μM in 0.1% DMSO) | Compound precipitated during assay ([3]; 10 μM in 0.1% DMSO)
COc1ccc(/C=C/C2=NS(=O)(=O)c3ccccc3N2)cc1OC [FT98, (E)-3-[2-(3,4-Dimethoxyphenyl)ethenyl]-4H-1,2,4-benzothiadiazine-1,1-dioxide] | 30 | 70 | 70 | 4 | 276 to 279 | – | – | – | – | – | – | –
COc1ccc(/C=C/c2nc3ncccc3c(=O)o2)cc1OC [FT102, (E)-2-(3,4-Dimethoxystyryl)-4H-pyrido[2,3-d][1,3]oxazin-4-one] | 0 | 0 | 10 | 4 | 228 to 231 | ppt | – | – | – | – | – | –
COc1ccc(/C=C/c2nc3ccccc3c(=O)o2)cc1OC [FT106, (E)-2-(3,4-Dimethoxystyryl)-4H-benzo[d][1,3]oxazin-4-one] | 0 | 0 | – | – | – | – | sick | dead | 2@30 uM | 1@100 uM | – | –
C#CCOc1ccc(/C=C/c2nc3ccccc3c(=O)o2)cc1OC [FT107, (E)-2-(3-Methoxy-4-propargyloxystyryl)-4H-benzo[d][1,3]oxazin-4-one] | 0 | 0 | 0 | 4 | 177 to 178 | ppt | – | – | – | – | – | –
O=c1oc(/C=C/c2ccc(OC(F)F)c(OC(F)F)c2)nc2ccccc12 [FT108, (E)-2-(3,4-Bis(difluoromethoxy)styryl)-4H-benzo[d][1,3]oxazin-4-one] | 75 | 95 | > 100 | 4 | 113 to 115 | – | – | – | – | – | – | –
COc1cc(/C=C/c2nc3ccccc3c(=O)o2)ccc1OC(C)=O [FT109, (E)-2-(4-Acetoxy-3-methoxystyryl)-4H-benzo[d][1,3]oxazin-4-one] | 3 | 16 | 75 | 4 | 185 to 186 | ppt | – | – | – | – | – | –
COc1ccc(/C=C/c2nc3ccccc3c(=O)o2)cc1OC(C)=O [FT110, (E)-2-(3-Acetoxy-4-methoxystyryl)-4H-benzo[d][1,3]oxazin-4-one] | 0 | 0 | 0 | – | – | ppt | – | (cells elongated) | – | 3@100 uM | – | –
COc1ccc(/C=C/C(=O)N2CCc3ccccc32)cc1OC [FT113, (E)-3-(3,4-dimethoxyphenyl)-1-(indolin-1-yl)prop-2-en-1-one] | 20 | 67 | 44 | 4 | 118 to 120 | – | – | – | – | – | – | –
COc1ccc(/C=C/c2nc3ccccc3[nH]2)cc1OC [FT121, (E)-2-(3,4-Dimethoxystyryl)-1H-benzo[d]imidazole] | ~60 | > 100 | – | – | – | – | – | dead | 3@30 uM | 1@100 uM | – | –
COc1ccc(/C=C/C(=O)N2CCOc3ccccc32)cc1OC [FT122, (E)-1-(2,3-Dihydrobenzo[b][1,4]oxazin-4-yl)-3-(3,4-dimethoxyphenyl)prop-2-en-1-one] | ~25 | ~80 | – | – | – | – | – | dead | 4@30 uM | 1@100 uM | – | –
COc1ccc(/C=C/C(=O)n2c(=O)n(C)c3ccccc32)cc1OC [FT123, (E)-1-(3-(3,4-Dimethoxyphenyl)acryloyl)-3-methyl-1H-benzo[d]imidazol-2(3H)-one] | 0 | 0 | 0 | 1 to 2 | – | ppt | sick | dead | – | – | ppt | –
COc1ccc(/C=C/C(=O)n2c(=O)oc3ccccc32)cc1OC [FT124, (E)-3-(3-(3,4-Dimethoxyphenyl)acryloyl)benzo[d]oxazol-2(3H)-one] | 0 | 0 | 0 | 2 | – | ppt | sick | sick | – | – | ppt | ppt
COc1ccc(/C=C/C(=O)N2CC(=O)Nc3ccccc32)cc1OC [FT125, (E)-4-(3-(3,4-Dimethoxyphenyl)acryloyl)-3,4-dihydroquinoxalin-2(1H)-one] | 0 | 0 | 0 | 2 | – | – | sick | sick | – | – | – | –
COc1cc2c(cc1OC)CC(C(=O)Nc1ccccc1C(=O)O)=C2 [FT126, 2-(5,6-Dimethoxy-1H-indene-2-carboxamido)benzoic acid] | ~55 | ~75 | ~100 | 4 | – | – | – | – | – | – | – | –
COc1cc2nc(C(=O)Nc3ccccc3C(=O)O)[nH]c2cc1OC [FT127, 2-(5,6-Dimethoxy-1H-benzo[d]imidazole-2-carboxamido)benzoic acid] | 0 | 0 | ~50 | 4 | – | – | – | – | – | – | – | –
COc1cc2c(cc1OC)S(=O)(=O)C(C(=O)Nc1ccccc1C(=O)O)=C2 [FT128, 2-(1,1-Dioxo-5,6-dimethoxybenzo[b]thiophene-2-carboxamido)benzoic acid] | ~20 | ~20 | ~40 | – | – | – | – | (some death) | – | 3@100 uM | – | –
COc1cc2c(cc1OC)CCC(C(=O)Nc1ccccc1C(=O)O)=C2 [FT129, 2-(6,7-Dimethoxy-1,2-dihydronaphthalene-3-carboxamido)benzoic acid] | ~10 | ~75 | – | – | – | – | – | dead | 2@30 uM | 1@100 uM | – | –
COc1cc2c(cc1OC)CC(C(=O)Nc1ccccc1C(=O)O)CC2 (stereo not drawn) [FT130, 2-(6,7-Dimethoxy-1,2,3,4-tetrahydronaphthalene-3-carboxamido)benzoic acid] | ~10 | ~30 | ~50 | – | – | – | – | – | – | 2@100 uM | – | –
COc1cc2c(cc1OC)/C(=C/C(=O)Nc1ccccc1C(=O)O)CNC2=O [FT131, (Z)-2-(2-(6,7-Dimethoxy-1-oxo-2,3-dihydroisoquinolin-4(1H)-ylidene)acetamido)benzoic acid] | ~20 | ~10 | ~10 | 4 | – | – | – | – | – | – | – | –
COc1ccc(/C=C/c2nc3c(C(=O)O)cccc3o2)cc1OC [FT132, (E)-2-(3,4-Dimethoxystyryl)benzo[d]oxazole-4-carboxylic acid] | ~2 | ~75 | ~75 | – | – | ppt | – | (some death) | – | 3@100 uM | ppt | –
